Data on ten molecules can be found in patent US20070021450A1, “Indanylamino uracils and their use as antioxidants and neuroprotectants” (priority 2004, published 2007).

A short description of series [1]: Reaction with 1,1-diphenyl-2-picrylhydrazyl (DPPNH), radical scavenging. In kind it is physicochemical. The conditions noted are these: equimolar amounts; for DPPNH consumed: reacted instantaneously; for DPPNH: radical scavenging, grades 0 to +++, key not given. Here is the method:
(§1) Reaction with 1,1-diphenyl-2-picrylhydrazyl (DPPNH) is indicative of radical scavenging ability. The compounds were mixed with DPPNH (in equimolar amounts) and the consumption rate of DPPNH was measured. Compounds 3 and 4 reacted instantaneously, consuming 70% and 20% of DPPNH respectively (Table 2). The oxidation potential of the compounds was measured by cyclic voltametry.

The nature of series [2]: Oxidation potential by cyclic voltametry. Format: physicochemical. The conditions noted are these: for oxidation potential (cyclic voltametry), in words: pH 7.2. Here is the method:
as §1

The nature of series [3]: Chemical chemiluminescence (without cells): Luminol+SIN-1+selenite+BSA. The conditions noted are these: compared to ascorbic acid. Further details: concentration or dose not given beside the values. The source says:
Luminescence was generated in vials containing the following compounds: Luminol+SIN-1(generator of NO radicals)+selenite+BSA. This reaction is inhibited by scavengers of peroxynitrites, as well as scavengers of NO and O2 free radicals.

The next series deals with neutrophils. Kind of series: PMA-induced oxidative burst in neutrophils (DCFH, FACS). To be noted: PMA 10 ng/ml 30 min, compared to ascorbic acid. In kind it is cell-based. As to the method:
PMA-induced oxidative burst in neutrophils: The cells were activated with PMA (10 ng/ml) for 30 min and incubated with 2,7-dichlorodihydrofluorescin diacetate (DCFH), which, in the presence of O2 radicals and peroxynitrites, is converted to a fluorescent compound. The fluorescent cells are detected in a cell sorter (FACS).

The subject of another series is human red blood cells. Kind of series: Hypochlorite (HOCl) hemolysis of human red blood cells. In kind it is cell-based. To be noted: activity compared to ascorbic acid. As to the method: Hypochlorite (HOCl) hemolysis of human red blood cells. The reaction is based on the ability of O2 radicals to lyse red blood cells. Antioxidant compounds such as ascorbic acid and 4-hydroxy-2,2,6,6-tetramethyl-piperidine-1-oxyl (TEMPOL) prevent membrane damage in a dose dependent manner. All compounds were dissolved at a concentration of 5 mg/ml and aliquots were tested for their ability to prevent lysis.

Series [4] has as its system EAE (PLP 139-151 challenge). The series is described as follows: PLP induced experimental allergic encephalomyelitis (EAE) in SJL mice. Format: in vivo. Details: key to Mean maximal score / Mean score (group mean score): clinical score 0 = no signs to 6 = death. The conditions noted are these: for effect on EAE, in words: 50 mg/kg/day po. Here is the method:
Female SJL mice (12 weeks) were inoculated with the encephalitogenic peptide of proteolipid protein (PLP 139-151) synthesized to a purity of 70% by Sigma (Israel). 150 μg of the peptide were emulsified in complete Freund's adjuvant (CFA) (Difco laboratories), supplemented with killed mycobacteria (5 mg/ml) and pertussis toxin (200 ng) (Sigma), given subcutaneously at day of inoculation only.
Mice were kept SPF conditions and given water and food ad libitum. Mice were daily observed for clinical signs from day 10 to day 18-21 post inoculation.
The clinical score used is as follows: 0—no clinical signs; 0.5—loss of right reflex; 1—distal limp tail; 2—complete limp tail; 3—ataxia; 4—early paralysis (one hind limb); 5—complete hind legs paralysis and moribund state; 6—death.
Compounds were dissolved in 2-hydroxypropyl beta cyclodextrin (40% water solution). Treatment started at day 1 post inoculation. The compounds (50 mg/kg) and vehicle were given orally by gavage every day until day 20 post inoculation.
Compounds 6 and 7 were given orally to mice challenged with PLP, at a dose of 50 mg/kg/day, p.o. The results are presented in Table 3a and in FIGS. 2 and 3. The effect of Compound 6 on all parameters of the disease was more pronounced as compared to the control group.

In series [5] the test system is EAE (PLP 139-151 challenge). Described as above. In kind it is in vivo. To be noted: single dose daily, po.
The test system of another series is EAE. Kind of series: Treatment of EAE with TEMPOL (FIG. 1). To be noted: Tempol 100 mg and 200 mg groups. Format: in vivo, mice. The text has this: The dosage of TEMPOL used here was […] higher than the dosages of compounds 6 and 7 below. The experiments were terminated arbitrarily at day 18 post-immunization. The course of EAE in different groups of animals varies. Consequently, recovery time is variable, typically by two or three days.

Series [6] deals with EAE (MSCH emulsion induction). Kind of series: EAE in CSJL mice, acute model (MSCH/CFA induction). Format: in vivo. To be noted: for Mortality / Incidence: 30 days, CSJL mice; for Mean Duration: duration of disease; for % inhibition 3: inhibition of GMS vs control; for % inhibition 2: inhibition of MMS vs control; for % inhibition 1: inhibition of incidence vs control; for GMS value: mean group score; for MMS value: mean maximal score.

[7] abbreviates: Table 3b: 12.5 mg/kg, single dose daily, po.
[8] abbreviates: Table 3b: 50 mg/kg, single dose daily, po.
The mark [9] stands for this setting: Table 3b: 50 mg/kg, single dose daily, po, only mice that develop disease.
[10] abbreviates: Table 3b: 100 mg/kg, single dose daily, po.
The mark [11] stands for this setting: Table 3a: 50 mg/kg/day po, single dose daily, PLP challenge.
Where [12] appears, read: 25.0 mg/kg × 2 per day (single dose on weekends), oral.
Setting [13] is: Table 3a: 50 mg/kg/day po, PLP challenge, mean ± SEM.

Molecules are shown by their SMILES.

One may read the melting point as the temperature, or range, at which the solid turns liquid. `Nc1c(NC2CCc3ccccc32)[nH]c(=O)[nH]c1=O` (centres unmarked) [Compound 4, 5-amino-6-(indan-1-ylamino)-1H-pyrimidine-2,4-dione] registered a melting point greater than 150 °C. This molecule also returned a DPPNH consumed in [1] of 20%. Also, the “Cyclic voltametry - AW” value in series [2] (anodic wave, grades 0 to +++, key not given) stood at 0.
For the molecule `CC1(C)CC(O)CC(C)(C)N1O` [N-Hydroxy-tetramethyl-4-piperidinol, reference compound], the “% Chemiluminescence inhibition” value in series [3] stood at 42%. Moreover, in the series with neutrophils, the “PMA % of cells activated” value amounted to 60%. In addition, the HOCl % lysis in the series with human red blood cells is recorded as 52%.
With `Nc1c(N)n(C2CCc3ccccc32)c(=O)[nH]c1=O` (centres unmarked) [Compound 3, 5,6-diamino-1-indan-1-yl-1H-pyrimidine-2,4-dione], the melting point was 218 °C (dec.). In series [1], this molecule yielded a DPPNH consumed of 70%. In addition, the “% Chemiluminescence inhibition” value in [3] came out at 38%. Further, the “PMA % of cells activated” value with neutrophils turned out to be 30%. The “oxidation potential (cyclic voltametry), in words” value (“oxidation potential” for short) in series [2] is on record as “strong electron donor activity”. Also, the HOCl % lysis in the series with human red blood cells worked out at 72%.
Regarding `CC1(C)CC(O)CC(C)(C)N1` [Tetramethyl-4-piperidinol, reference compound], the “% Chemiluminescence inhibition” value in [3] turned out to be 1.2%. For the same molecule, the “PMA % of cells activated” value in the series on neutrophils amounted to 30%. In the series with human red blood cells, this molecule came in with an HOCl % lysis of 0%.
For `O=c1cc(NC2CCc3ccccc32)[nH]c(=O)[nH]1` (centres unmarked) [Compound 5, 6-(indan-1-ylamino)-1H-pyrimidine-2,4-dione], the figures for the Incidence in series [4] (setting [7]), in series [4] (setting [8]) and in series [4] (setting [10]) were 18/18, 14/16 and 5/5, respectively. Besides, the figures for the Mean maximal score in series [4] (setting [7]), in [4] (setting [8]) and in [4] (setting [10]) were 4.5, 5 and 5, respectively. The Mean disease duration is listed as 5.64 ± 1.55 in series [4] (setting [8]), 6.06 ± 1.7 in [5] (Table 3b: 12.5 mg/kg) and 4.4 ± 1.7 in [5] (Table 3b: 100 mg/kg). In addition, the Mean score in series [4] (setting [8]) worked out at 3.48 ± 0.3; in series [4] (setting [10]), 3.2 ± 0.25; in series [5] (Table 3b: 12.5 mg/kg), 3.8 ± 0.35. For the same molecule, the “Mean day of onset” value stood at 12.9 ± 1.35 in series [4] (setting [9]); 11.8 ± 1.1 in [4] (Table 3b:, single dose daily, po, only mice that develop disease); 12 ± 0.68 in series [5] (Table 3b: 12.5 mg/kg, only mice that develop disease). The molecule further yielded a DPPNH in series [1] of 0. In addition, the “% Chemiluminescence inhibition” value in [3] is 75%. The “PMA % of cells activated” value in the series on neutrophils was 80%. Besides, the “oxidation potential” value in series [2] is on record as “reducing action, but to a lesser extent than compound 3”. The HOCl % lysis in the series with human red blood cells amounted to 100%.
In the case of `Nc1cc(=O)[nH]c(=O)n1C1CCc2ccccc21` (centres unmarked) [Compound 1, 6-amino-1-indan-1-yl-1H-pyrimidine-2,4-dione], in series [4] (setting [8]), the Incidence is listed as 6/8, the Mean disease duration is 5.57 ± 1.72, the Mean maximal score is 4.2 and the Mean score came to 3.4 ± 0.2. Further, the “Mean day of onset” value in series [4] (setting [9]) is on record as 12.5 ± 0.7. This molecule returned a DPPNH in series [1] of 0. Moreover, in [3], the “% Chemiluminescence inhibition” value amounted to 0%. Also, the “PMA % of cells activated” value in the series with neutrophils is 0%. In addition, in series [2], the “oxidation potential” value is recorded as “reducing action, but to a lesser extent than compound 3”. Also, the HOCl % lysis in the series with human red blood cells is 75%.
Regarding `CC1(C)CC(O)CC(C)(C)N1[O]` [4-hydroxy-2,2,6,6-tetramethyl-piperidine-1-oxyl, reference compound], the “manifestation of clinical signs of EAE, in words” value with EAE is recorded as “has the ability to inhibit the manifestation of clinical signs of EAE”. The “% Chemiluminescence inhibition” value in [3] was 78%. Further, in the series on neutrophils, the “PMA % of cells activated” value was 80%. The same molecule showed an HOCl % lysis in the series on human red blood cells of 50%.
With `CN(C)c1cccc2c1CCC2Nc1cc(=O)[nH]c(=O)[nH]1.Cl` (centres unmarked) [Compound 6, 6-(4-dimethylamino-indan-1-ylamino)-1H-pyrimidine-2,4-dione HCl], the “effect on EAE, in words” value in series [4] (PLP challenge) is listed as “significant beneficial effect on EAE”. Besides, in series [4] (setting [11]), the “(# dead)” value was “(4)” and the Incidence is 10/14. Moreover, in series [3], the “% Chemiluminescence inhibition” value was 56%. Further, the Mortality in series [6] (setting [12]) is 4/10. Besides, the Incidence in [6] (25.0 mg/kg × 2 per day, oral) is recorded as 7/10. Besides, in series [6] (50.0 mg/kg once a day, oral), the Incidence was 7/10, the Mortality is 5/10, the “Mean Duration” value turned out to be 11.3 ± 8.5 days and the “% inhibition 3” value turned out to be 31.3%. Also, in series [6] (50.0 mg/kg once a day, oral), the “% inhibition 2” value turned out to be 26.8%, the “% inhibition 1” value stood at 30.0%, the GMS value was 2.2 ± 1.8 and the MMS value is 3.0 ± 2.3. In series [6] (25.0 mg/kg × 2, oral), the “Mean Duration” value is given as 11.1 ± 8.6 days, the “% inhibition 3” value came to 40.6%, the “% inhibition 2” value is listed as 34.1% and the “% inhibition 1” value amounted to 30.0%. In [6] (25.0 mg/kg × 2, oral), this molecule gave a GMS value of 1.9 ± 1.9 and an MMS value of 2.7 ± 2.2. In the series on human red blood cells, the HOCl % lysis is reported as 44%.
As for `CN(C)c1ccc2c(c1)C(Nc1cc(=O)[nH]c(=O)[nH]1)CC2.Cl` (centres unmarked) [Compound 7, 6-(6-dimethylamino-indan-1-ylamino)-1H-pyrimidine-2,4-dione HCl], the “effect on EAE, in words” value in [4] (PLP challenge) is given as “significant beneficial effect on EAE”. Moreover, in series [4] (setting [13]), the “Mean day of onset” value is 14.8 ± 0.94, the Mean disease duration turned out to be 4.1 ± 0.84, the Mean maximal score came out at 4.3 ± 0.9 and the “Mean score (group mean score)” value came to 1.6 ± 0.27. Besides, in [4] (setting [11]), the “(# dead)” value is “(4)” and the Incidence was 11/14. Also, the “% Chemiluminescence inhibition” value in [3] came to 62%. The Mortality in series [6] (setting [12]) is listed as 8/10. In series [6] (25.0 mg/kg × 2 per day, oral), the Incidence is reported as 8/10. In addition, in series [6] (50.0 mg/kg once a day, oral), the Incidence was 7/10, the Mortality is 7/10, the “Mean Duration” value was determined as 12.7 ± 8.8 days and the “% inhibition 3” value is on record as 15.6%. Also, in [6] (50.0 mg/kg once a day, oral), the “% inhibition 2” value stood at 14.6%, the “% inhibition 1” value is 30.0%, the GMS value worked out at 2.7 ± 1.9 and the MMS value was 3.5 ± 2.4. In [6] (25.0 mg/kg × 2, oral), the “Mean Duration” value is reported as 13.9 ± 7.5 days, the “% inhibition 3” value is 9.4%, the “% inhibition 2” value is on record as 2.4% and the “% inhibition 1” value is reported as 20.0%. Also, in series [6] (25.0 mg/kg × 2, oral), the GMS value was 2.9 ± 1.6 and the MMS value was determined as 4.0 ± 2.1. In addition, the HOCl % lysis in the series on human red blood cells was 55%.
For `O=C1O[C@H]([C@@H](O)CO)C(O)=C1O` [Ascorbic acid, reference compound], in series [3], the “% Chemiluminescence inhibition” value turned out to be 100%. The “PMA % of cells activated” value with neutrophils was 100%. In the series on human red blood cells, the HOCl % lysis was found to be 100%.
